Measurements reported in the NIST ThermoML archive (doi:10.1016/j.jct.2015.04.003).
± gives the expanded uncertainty stated by the source.

Assay: Boiling temperature at pressure P
Settings: 101.33 kPa; Liquid; Ebulliometric method (Recirculating still)

Point of comparison: `CCCCOC(C)=O` [butyl ethanoate], “Boiling temperature at pressure P” value 125.92 ± 0.05 °C. Against it:
- COc1ccccc1O [2-methoxyphenol] — higher, 205.10 ± 0.05 °C
- COc1ccccc1 [anisole] — higher, 153.54 ± 0.05 °C
